The source of these data is paper PMC5728361 (Structure (London, England : 1993), 2017).

This test has as its target PLC-δ1 PH domain (Homo sapiens, UniProt P51178). In kind it is binding. To be noted: pH 7.5.

Sequence of PLC-δ1 PH domain (P51178 21-130): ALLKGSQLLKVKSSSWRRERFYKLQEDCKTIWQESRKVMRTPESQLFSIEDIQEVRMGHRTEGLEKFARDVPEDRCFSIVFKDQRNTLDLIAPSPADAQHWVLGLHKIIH

As to “L-α-phosphatidylinositol-4,5-bisphosphate [PI(4,5)P2]”, the “PIP-binding specificity of PLC-δ1 PH domain” value is given as “binding specificity”.
